Laboratory results from patent US4224342A, “Guanidinobenzoic acid compounds and process for preparing the same” (Ono Pharmaceutical Co., Ltd., priority 1977, dated 1980).

Assays:
Acute toxicity in mice = settings: mouse, in vivo, route not given
Acute toxicity in rats = settings: rat, in vivo, route and LD50 not given
trypsin = target: T1, trypsin (Bos taurus, UniProt P00760); assay: In vitro inhibition of trypsin hydrolysis of p-tosylarginine methyl ester; type: biochemical; settings: trypsin 0.5 μg, p-tosylarginine methyl ester 20 mM, Tris-HCl pH 8.5, 37° C., 30 minutes; read-out: 50% Inhibition Concentration, Anti-Trypsin
T1 sequence (P00760 24-246): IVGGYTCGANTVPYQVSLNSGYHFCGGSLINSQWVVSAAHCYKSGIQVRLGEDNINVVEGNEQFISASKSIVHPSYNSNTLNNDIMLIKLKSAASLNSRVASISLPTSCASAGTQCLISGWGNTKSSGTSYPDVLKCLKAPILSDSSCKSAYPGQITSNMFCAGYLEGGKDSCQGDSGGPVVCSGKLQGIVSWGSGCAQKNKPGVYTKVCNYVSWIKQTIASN

plasmin = target: T2, plasmin (Homo sapiens, UniProt P00747); assay: In vitro inhibition of plasmin (human euglobulin, streptokinase, fibrinogen); type: biochemical; settings: fibrinogen 4%, borate saline pH 7.4, 37° C., 30 minutes, read-out: 50% Inhibition Concentration, Anti-Plasmin
T2 construct: from tissue; host or cells: human euglobulin (blood plasma fraction), with streptokinase added
T2 sequence (P00747 581-810 limits assumed): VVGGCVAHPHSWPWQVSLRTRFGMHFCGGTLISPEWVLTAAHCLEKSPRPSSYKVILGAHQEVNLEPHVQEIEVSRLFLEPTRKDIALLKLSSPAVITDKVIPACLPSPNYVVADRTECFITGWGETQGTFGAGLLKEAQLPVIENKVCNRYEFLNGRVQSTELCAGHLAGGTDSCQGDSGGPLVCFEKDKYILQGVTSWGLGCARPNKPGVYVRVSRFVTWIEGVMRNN
T2 sequence (P00747 97-580 partner limits assumed): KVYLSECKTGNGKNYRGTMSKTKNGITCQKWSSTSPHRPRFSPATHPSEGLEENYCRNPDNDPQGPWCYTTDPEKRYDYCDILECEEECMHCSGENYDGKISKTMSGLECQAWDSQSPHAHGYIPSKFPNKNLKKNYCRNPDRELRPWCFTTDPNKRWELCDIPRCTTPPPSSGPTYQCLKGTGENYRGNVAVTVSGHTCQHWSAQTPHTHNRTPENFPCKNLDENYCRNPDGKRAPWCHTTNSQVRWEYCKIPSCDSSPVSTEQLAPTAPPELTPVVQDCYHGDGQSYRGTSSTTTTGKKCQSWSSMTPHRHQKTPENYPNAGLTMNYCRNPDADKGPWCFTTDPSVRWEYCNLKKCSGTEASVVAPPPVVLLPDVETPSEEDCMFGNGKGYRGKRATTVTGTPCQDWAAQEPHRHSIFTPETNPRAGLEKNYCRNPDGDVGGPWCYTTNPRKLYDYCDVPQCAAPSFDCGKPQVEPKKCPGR
Method: 0.1 ml of human euglobulin (10 fold dilution), 0.1 ml of streptokinase (2000 unit/ml), 0.4 ml of fibrinogen (4% solution), 0.3 ml of a 0.1 M borate saline buffer solution (pH 7.4) and 0.1 ml of a solution of each of the following compounds represented by the formula (I) at various concentrations was allowed to react at a temperature of 37° C. for 30 minutes.

| SMILES | LD50 (Acute toxicity in mice) | LD50 (Acute toxicity in rats) | IC50 (trypsin) | IC50 (plasmin) |
| --- | --- | --- | --- | --- |
| CS(=O)(=O)O.N=C(N)Nc1ccc(C(=O)Oc2ccc(CC(=O)O)cc2)cc1 [4-(4-guanidinobenzoyloxy)phenylacetic acid mesylate] | 4500 mg/kg | 4400 mg/kg | – | – |
| N=C(N)Nc1ccc(C(=O)Oc2ccc(CC(=O)O)cc2)cc1 [P-(p-Guanidinobenzoyloxy)phenylacetic Acid] | – | – | 29 nM | 250 nM |
| COC(=O)Cc1ccc(OC(=O)c2ccc(NC(=N)N)cc2)cc1 [methyl p-(p-guanidinobenzoyloxy)phenyl acetate] | – | – | 9 nM | 220 nM |
